Test results reported in US10993919B2, “Chondroprotective nanoparticles for the treatment of osteoarthritis” (University of Florida Research Foundation, Inc., priority 2016, dated 2021).

Test system: fat pad-derived MSCs
Experiment: MSC migration in Boyden chamber plates
Format: cell-based
Conditions: MSCs isolated from the fat pad of the joint; preliminary
Method: To determine if there are inherent differences in the migratory activity of the different MSC populations, migration in response to serum is first evaluated using 96-well Boyden chamber plates. To simulate OA conditions, MSC migration is evaluated in response to IL-1β (10 ng/mL and 50 ng/mL), conditioned medium from the established OA cartilage explants, and conditioned medium from normal explants. Results from each group are compared with a positive control of media with 10% serum to determine if the experimental conditions increase or decrease migration of MSCs.
The response of MSCs to chondroinductive agents is evaluated, specifically platelet-derived growth factor (PDGF-BB) and kartogenin (KGN), which were selected based on their pleiotropic effects on promoting both migration and chondrogenesis of MSCs without adverse effects in the OA joint. PDGF-BB exerts chemotactic effects on bone marrow-derived MSCs, and facilitates new cartilage formation in the presence of IL-1β (Montaseri, A., et al. PloS one 6:e28663 (2011)). […] Kartogenin has been implicated in stimulating MSC recruitment in vivo, however, there are no reported migration studies with KGN, and therefore, the underlying mechanism for KGN-mediated recruitment is largely unknown. […]

IL-1β: predominant pro-inflammatory cytokine in OA
MSC migration: may indeed inhibit migration
